Source: patent publication US4748240A, “Psychotropic bicyclic imides” (American Home Products Corporation, priority 1987, dated 1988)
Read-outs that look alike come from different tables or passages of the source.

Columns and labels:
[1] = system: conditioned avoidance responding; experiment: Conditioned avoidance, Discrete Trial (lever press); type: in vivo, rat (male CD, Charles River); conditions: for Conditioned Avoidance, Discrete Trial AB50: p.o.; for ED50: Rattus norvegicus, po, read-out: Conditioned Avoidance, Discrete Trial AB50
Source text: (§1) The antipsychotic properties of the compounds of this invention were established by standard pharmacologically accepted procedures involving conditioned avoidance studies in which trained male CD rats (Charles River), 400-450 g. body weight are exposed to a fifteen second warning tone (conditioned stimulus) continued for an additional fifteen seconds accompanied by electric shock. The rat can avoid the electric shock by jumping to an exposed shelf (shelf-jump response). A response during the initial warning tone is considered an avoidance response, while a response during shock delivery is considered as escape response. The shelf-jump response test procedure follows that of Herman et al., Comm. in Psychopharm., 3, pp. 165-171 (1979). The compounds of this invention were tested at a single dose (40 mg./kg. i.p.) in this procedure and were rated relative to their inhibition of conditioned avoidance responding. A similar test procedure (Discrete Trial) in which a lever press was substituted for a shelf-jump was used to establish the oral (p.o.) activity of the test compounds. Orally active compounds were tested over a full dose range and the Avoidance Block activities reported as "AB50 's" (mg./kg.).

[2] = system: apomorphine-induced stereotyped behavior and climbing; experiment: Antagonism of apomorphine-induced stereotyped behavior and climbing; type: in vivo, mouse (CF-1, Charles River); conditions: for Apomorphine Antagonism, Stereotypy ED50 / Apomorphine Antagonism, Climbing ED50: p.o.; for Apomorphine Antagonism, Stereotypy ED50 / ED50 / Apomorphine Antagonism, Climbing ED50: apomorphine 1 mg/kg s.c.; for ED50: Mus musculus, po; for Ratio of ED50 for stereotyped behavior to ED50 for climbing: standard antipsychotic drugs, high ratio = low extrapyramidal liability
Method: Readings are repeated every five minutes during a thirty minute test session. […] The ratio of the ED50 for stereotyped behavior of the ED50 for climbing is calculated.

[3] = molecular target: T1, D-2 dopamine receptor (Rattus norvegicus, UniProt P61169); experiment: [^3 H] Spiroperidol binding inhibition (D-2 dopamine receptor, homogenized limbic brain tissue)
T1 construct: from tissue; host or cells: homogenized limbic brain tissue
Source text: The results of this testing with compounds representative of the invention whose production is exemplified, infra, are as follows: […]

[4] = system: conditioned avoidance responding; experiment: Conditioned avoidance, shelf-jump response; type: in vivo, rat (male CD, Charles River); conditions: Rattus norvegicus, ip; single dose 40 mg/kg
Source text: as §1

[5] = molecular target: T2, 5-HT1A serotonin receptor (Rattus norvegicus, UniProt P19327); experiment: Inhibition of [^3 H] 8-OH DPAT binding
T2 construct: from tissue
T2 sequence (P19327 1-422): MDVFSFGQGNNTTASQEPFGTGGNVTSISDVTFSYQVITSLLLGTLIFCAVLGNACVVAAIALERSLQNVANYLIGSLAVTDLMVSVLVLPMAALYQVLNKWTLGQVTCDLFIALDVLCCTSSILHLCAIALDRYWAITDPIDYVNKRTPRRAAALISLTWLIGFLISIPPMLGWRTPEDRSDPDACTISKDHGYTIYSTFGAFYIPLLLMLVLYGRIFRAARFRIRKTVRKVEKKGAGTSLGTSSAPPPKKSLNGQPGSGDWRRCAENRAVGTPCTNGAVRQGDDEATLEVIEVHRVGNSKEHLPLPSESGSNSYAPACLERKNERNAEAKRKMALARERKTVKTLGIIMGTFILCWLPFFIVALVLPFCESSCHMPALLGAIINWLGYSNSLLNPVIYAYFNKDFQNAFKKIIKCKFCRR
Source text: 8-OH DPAT (dipropylaminotetralin) from the 5-HT1A serotonin receptor by the procedure of Hall et al., J. Neurochem.

[6] = read-out: Apomorphine Antagonism, Climbing ED50
[7] = read-out: Apomorphine Antagonism, Stereotypy ED50

T1 sequence (P61169 whole entry): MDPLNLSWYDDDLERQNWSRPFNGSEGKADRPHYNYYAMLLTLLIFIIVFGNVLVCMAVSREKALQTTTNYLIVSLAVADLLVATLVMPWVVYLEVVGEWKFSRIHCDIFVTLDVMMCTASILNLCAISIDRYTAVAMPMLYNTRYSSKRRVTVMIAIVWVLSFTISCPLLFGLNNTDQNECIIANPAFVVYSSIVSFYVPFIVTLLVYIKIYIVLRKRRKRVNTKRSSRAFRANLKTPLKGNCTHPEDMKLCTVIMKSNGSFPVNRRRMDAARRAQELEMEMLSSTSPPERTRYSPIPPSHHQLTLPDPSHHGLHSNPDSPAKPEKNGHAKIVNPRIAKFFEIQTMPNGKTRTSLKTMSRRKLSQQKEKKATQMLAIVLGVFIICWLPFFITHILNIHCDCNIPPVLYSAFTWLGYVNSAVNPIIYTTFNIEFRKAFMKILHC

| SMILES | Conditioned Avoidance, Discrete Trial AB50 [1] | Apomorphine Antagonism, Stereotypy ED50 [2] | inhibition at 1 µM [3] [%] | inhibition in vivo at 40 mg/kg [4] [%] | Ki [5] [nM] | ED50 [2, 6] [mg/kg] | ED50 [1] [mg/kg] | ED50 [2, 7] [mg/kg] | Ki [3] [nM] | Apomorphine Antagonism, Climbing ED50 [2] | Affinity for the 5-HT1A serotonin receptor (in words) [5] | inhibition at 1 µM [5] [%] | Ratio of ED50 for stereotyped behavior to ED50 for climbing [2] |
| --- | --- | --- | --- | --- | --- | --- | --- | --- | --- | --- | --- | --- | --- |
| O=C1C2CCC(O2)C(=O)N1CCCCN1CCN(c2ncccn2)CC1 [Example 3, 3-[4-[4-(2-Pyrimidinyl)-1-piperazinyl]butyl]-8-oxa-3-azabicyclo[3.2.1]octane-2,4-dione] | weak | inactive | 44 | ~80 | 31 |  |  |  |  |  |  |  |  |
| O=C1C2CC=CCC(C2)C(=O)N1CCCCN1CCN(c2ncccn2)CC1 [Example 21, 8-[4-[4-(2-Pyrimidinyl)-1-piperazinyl]butyl]-8-azabicyclo[4.3.1]dec-3-ene-7,9-dione] | inactive | inactive | 63 | > 20 | 15 | 11.1 |  |  |  |  |  |  |  |
| O=C1C2CCCC(O2)C(=O)N1CCCCN1CCN(c2ncccn2)CC1 [Example 13, 3-[4-[4-(2-Pyrimidinyl)-1-piperazinyl]butyl]-9-oxa-3-azabicyclo[3.3.1]nonane-2,4-dione] |  | inactive | 17 | ~80 | 122 | 0.24 | 86.2 |  |  |  |  |  |  |
| O=C1C2CCCC(O2)C(=O)N1CCCCN1CCN(c2cccc(C(F)(F)F)c2)CC1 [Example 19, 3-[4-[4-[3-(Trifluoromethyl)phenyl]-1-piperazinyl]butyl]-9-oxa-3-azabicyclo[3.3.1]nonane-2,4-dione] |  |  | 97 | ~80 | 15 | 9.06 | 27 | 31 |  |  |  |  |  |
| O=C1C2CCC(C2)C(=O)N1CCCCN1CCN(c2cccc(Cl)c2)CC1 [Example 11, 3-[4-[4-(3-Chlorophenyl)-1-piperazinyl]butyl]-3-azabicyclo[3.2.1]octane-2,4-dione] |  |  |  | ~80 | 3.89 | 0.79 | 27.1 | 2.2 | 130 |  |  |  |  |
| O=C1C2CCCC(C(=O)N1CCCCN1CCN(c3ncccn3)CC1)[S+]2[O-] (centres unmarked) [Example 6, 3-[4-[4-(2-Pyrimidinyl)-1-piperazinyl]butyl]-9-thia-3-azabicyclo[3.3.1]nonane-2,4-dione-9-oxide] | inactive | inactive | 14 | > 20 | 90 |  |  |  |  | inactive |  |  |  |
| O=C1CC2(CCCC2)CC(=O)N1CCCCN1CCN(c2ncccn2)CC1 [buspirone, reference compound] |  |  |  |  |  |  |  |  |  |  | potent affinity |  |  |
| O=C1C2CCC(C2)C(=O)N1CCCCN1CCN(c2cccc(C(F)(F)F)c2)CC1 [Example 10, 3-[4-[4-[3-(Trifluoromethyl)phenyl]-1-piperazinyl]butyl]-3-azabicyclo[3.2.1]octane-2,4-dione] |  |  |  | ~80 | 3.61 | 1.05 | 7.03 | 4.98 | 80 |  |  |  |  |
| O=C1C2CCC(C2)C(=O)N1CCCCN1CCN(c2ncccn2)CC1 [Example 2, 3-[4-[4-(2-Pyrimidinyl)-1-piperazinyl]butyl]-3-azabicyclo[3.2.1]octane-2,4-dione] | weak | inactive |  | > 20 | 106 |  |  |  | 2610 |  |  |  |  |
| O=C1C2CCC(C2)C(=O)N1CCCCN1CCN(c2cncc(Cl)n2)CC1 [Example 8, 3-[4-[4-(6-Chloro-2-pyrazinyl)-1-piperazinyl]butyl]-3-azabicyclo[3.2.1]octane-2,4-dione] |  | inactive | 12 | ~80 |  | 15.7 | 33.6 |  |  |  |  | 68 |  |
| O=C1C2CCC(C2)C(=O)N1CCCN1CCN(c2cccc(C(F)(F)F)c2)CC1 [Example 22, 3-[3-[4-[3-(Trifluoromethyl)phenyl]-1-piperazinyl]propyl]-3-azabicyclo[3.2.1]octane-2,4-dione] | weak |  | 38 | ~80 | 4 | 29.5 |  | 43.3 |  |  |  |  |  |
| CC1(C)C2CCC1C(=O)N(CCCCN1CCN(c3ncccn3)CC1)C2=O [Example 20, 3-[4-[4-(2-Pyrimidinyl)-1-piperazinyl]butyl]-8,8-dimethyl-3-azabicyclo[3.2.1]octane-2,4-dione] | inactive | inactive | 53 | > 20 | 16 | 0.2 |  |  |  |  |  |  |  |
| CN(C)CCCN1c2ccccc2Sc2ccc(Cl)cc21 [chlorpromazine, reference compound] |  |  |  |  |  |  |  |  |  |  |  |  | 1.51 |
| O=C1C2CCCC(C2)C(=O)N1CCCCN1CCN(c2ncccn2)CC1 [Example 1, 3-[4-[4-(2-Pyrimidinyl)-1-piperazinyl]butyl]-3-azabicyclo[3.3.1]nonane-2,4-dione] | inactive | inactive | 38 | ~80 | 10 |  |  |  |  |  |  |  |  |
| O=C(CCCN1CCC(O)(c2ccc(Cl)cc2)CC1)c1ccc(F)cc1 [haloperidol, reference compound] |  |  |  |  |  |  |  |  |  |  |  |  | 1.00 |
| O=C1C2CCC(O2)C(=O)N1CCCCN1CCN(c2cncc(Cl)n2)CC1 [Example 12, 3-[4-[4-(6-Chloro-2-pyrazinyl)-1-piperazinyl]butyl]-8-oxa-3-azabicyclo[3.2.1]octane-2,4-dione] | weak | inactive | 7 | > 20 |  | 51.6 |  |  |  |  |  | 54 |  |
| O=C1C2CCCC(C2)C(=O)N1CCCCN1CCN(c2cnccn2)CC1 [Example 16, 3-[4-[4-(2-Pyrazinyl)-1-piperazinyl]butyl]-3-azabicyclo[3.3.1]nonane-2,4-dione] | inactive |  | 12 | ~80 | 129 | 9.17 |  | 54.1 |  |  |  |  |  |
| O=C1C2CCC(S2)C(=O)N1CCCCN1CCN(c2ncccn2)CC1 [Example 4, 3-[4-[4-(2-Pyrimidinyl)-1-piperazinyl]butyl]-8-thia-3-azabicyclo[3.2.1]octane-2,4-dione] | inactive | inactive | 12 | > 20 | 46 | 53.3 |  |  |  |  |  |  |  |
| COc1ccccc1N1CCN(CCCCN2C(=O)C3CCC(C3)C2=O)CC1 [Example 17, 3-[4-[4-(2-Methoxyphenyl)-1-piperazinyl]butyl]-3-azabicyclo[3.2.1]octane-2,4-dione] |  |  | 0 | ~80 | 5 | 0.83 | 29.4 | 5.83 |  |  |  |  |  |
| O=C1C2CCCC(S2)C(=O)N1CCCCN1CCN(c2cncc(Cl)n2)CC1 [Example 14, 3-[4-[4-(6-Chloro-2-pyrazinyl)-1-piperazinyl]butyl]-9-thia-3-azabicyclo[3.3.1]nonane-2,4-dione] |  | inactive | 34 | > 20 | 35.2 |  | 35.6 |  |  |  |  |  |  |
| O=C1C2CCCC(S2)C(=O)N1CCCCN1CCN(c2ncccn2)CC1 [Example 5, 3-[4-[4-(2-Pyrimidinyl)-1-piperazinyl]butyl]-9-thia-3-azabicyclo[3.3.1]nonane-2,4-dione] |  | inactive | 27 | > 20 | 16 |  | 47.3 |  |  | inactive |  |  |  |
